Source: patent US10160785B2, “Antimicrobial peptides and their use for the treatment of topical infections” (priority 2015, dated 2018)
Where a SMILES comes first, the peptide text is derived from it.

Key:
in vitro = details: human
Procedure, shortened: (§1)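 Hemolysis expressed as LC50, the concentration giving 50% erythrocyte lysis. Supernatant A540 was scaled between buffer-only blank and 0.2% Triton X100 total lysis after 1 h, 37 °C exposure of 5% v/v human red cells to 2-200 μmol.l^−1 peptide in physiological solution.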

[1] = tested on: S. aureus (Liberec) biofilm; test: Bacterial biofilm, remaining metabolic activity (MTT); format: cell-based, Staphylococcus aureus; details: remaining metabolic activity of biofilm, 20 h
Procedure: (§2) Inoculum of S. aureus (Liberec) or P. aeruginosa (Liberec) cultivated overnight in BHI medium was diluted with fresh BHI medium containing 1% glucose to a final concentration to be ca. 10^8 CFU/ml. Then this was pipetted (100 μl) to 96-multiwell polystyrene plate which was incubated at 37° C. under rotary shaking (300 RPM) for 24 h. Medium without bacteria in the wells was used as a negative control. Supernatant from each well was drained and the biofilm formed on the bottom and on the walls of the wells was cautiously washed three times by sterile physiological solution (300 μl). The peptides tested in the concentrations of 1-128 μmol.l^−1 were prepared by twofold serial dilution of their stock solution (1 mmol.l^−1) in fresh BHI medium and then pipetted (100 μl) to the wells with formed biofilms. The biofilms covered by BHI medium without peptide were used as a positive control. The plates were then incubated for 20 h as described above. After that the liquid was drained out and wells were washed twice with sterile physiological solution.
(§3) The metabolic activity of surviving bacterial cells in the biofilm was determined by staining with MTT (3-(4,5-dimethylthiazol-2-yl)-2,5-diphenyl-2H-tetrazolium bromide) as follows: The mixture of BHI medium (100 μl) and 10 μl of the stock solution of MTT (5 mg/ml in physiological solution) was added to each well and the plate was incubated 40 min at 37° C. The liquid was drained out and the insoluble formazan crystals formed by reduction inside the biofilm were dissolved with dimethyl sulphoxide (100 μl). The intensity of staining in each well was measured as absorbance at 540 nm on a Tecan Infinite M200 Pro reader (Tecan GmbH, Austria). Remaining activity of surviving cells inside the biofilm was expressed for each well in percentage according to the following equation:
(§4) [formula] where A is the absorbance of the tested compound, ABL is the absorbance of the negative control, and AC is the absorbance of control biofilm.

[2] = tested on: P. aeruginosa (Liberec) biofilm; test: as above; format: cell-based, Pseudomonas aeruginosa; details: remaining metabolic activity of biofilm, 20 h
Procedure: as §2, §3, §4

[3] = tested on: Candida albicans (Olomouc) biofilm; test: C. albicans biofilm, remaining metabolic activity (XTT); format: cell-based
Procedure: Candida albicans (Olomouc) was sub-cultured overnight in YPD medium (10 g yeast extract (DIFCO, USA), 20 g peptone (OXOID), 20 g glucose (Penta) dissolved in 1 L of distilled water) at constant shaking (100 RPM) at 37° C. Next day, the overnight culture was diluted 1:100 into fresh YPD medium and incubated at constant shaking (200 RPM) at 37° C. until the mid-exponential growth phase was reached. Then the cells were harvested and washed twice by centrifugation in physiological solution (5000 RPM; 5 min). Cells were suspended in sterile salt solution and their optical density was determined at 600 nm.
A final yeast suspension was prepared at a cell density of 1×10^6 CFU (corresponding to optical density of 0.17 at 600 nm) in RPMI 1640 medium with L-glutamine (BioSera), NaHCO3 (2 g/l; Penta) and 0.165 mol.l^−1 MOPS (Duchefa)—further as RPMI broth medium 1.
Biofilms were formed on commercially available sterile, polystyrene, flat-bottomed, 96-well microtiter plates (TPP, SW). Cell suspension (100 μl) was pipetted into selected wells of a microtiter plate and incubated without shaking for 2 hours at 37° C. Afterwards, the wells were washed twice with sterile PBS buffer (1.44 g Na2HPO4, 0.24 g KH2PO4, 0.2 g KCl and 8 g NaCl in 1 l distilled water, pH=7; Penta). Fresh RPMI broth medium 1 (100 μl) was added to each well and the plate was sealed with parafilm and incubated without shaking for 48 hours at 37° C.
Planktonic and non-adherent cells were removed by threefold washing of the biofilm with sterile PBS buffer (200 μl). A twofold serial dilution was used to reach required peptide concentration (in RPMI broth medium 1) in each well. Peptide concentrations range was between 0.39-200 μmol.l^−1. Plates were then sealed with parafilm and incubated for 20 hours at 37° C.
The metabolic activity of surviving Candida cells in the treated biofilm was determined by staining with XTT (2,3-Bis(2-methoxy-4-nitro-5-sulphophenyl)-2H-tetrazolium-5-carboxanilide). Stock solution of PMS (phenazine methosulfate; 7.5 g/l; SIGMA, Czech Republic) stored at −20° C. was diluted in PBS buffer 1:100. Diluted PMS was further mixed (2:25) with stock solution of XTT (0.5 g/l; Alchimica, Slovakia) dissolved in PBS/RPMI broth medium (1:1). Mixture (100 μl) of PMS and XTT was added into treated biofilm in the wells and incubated for 90 min at 37° C. Then the intensity of staining in each well was measured as absorbance at 540 nm on a Tecan Infinite M200 Pro reader (Tecan GmbH, Austria). Remaining metabolic activity of the cells in the biofilm was expressed for each well in percentage and calculated as follows:
[formula] where A is the absorbance of tested compound, ABL is the absorbance of negative control and AC is the absorbance of control untreated biofilm. The non-inoculated wells served as negative control. Inoculated wells not treated with compound served as positive control. Amphotericin B was used as control drug to ensure quality of Candida albicans. The values of remaining metabolic activity of treated biofilms are shown at Table 5.

C. glabrata ATCC 2001 = test: Lethal effect on yeast cells by plating test; format: cell-based, Candida glabrata; details: 15 minutes exposure, peptide alone, FIG. 1B
Procedure: C. glabrata ATCC 2001 cells were aerobically cultivated at 30° C. on YPD medium (Formedium) overnight. A small volume of inoculum was added to fresh YPD medium to final concentration of cells 5×10^6 CFU/ml (corresponding value OD600=0.2). Yeast cells were cultivated at 30° C. (190 rpm) until they reach early exponential growth phase, usually further 4-5 h. Cells were harvested, washed twice with distilled water (1.5 min, 3000 g) and resuspended in MES-TEA buffer (10 mM 4-morpholineethanesulphonic acid, pH 6.0 adjusted with triethanolamine, both chemicals from Sigma-Aldrich) to OD600=0.2.
Cells from the early exponential growth phase were washed twice with sterile distilled water (1.5 min, 3000 g) and resuspended in MES-TEA buffer to OD600=0.2. The cell suspension was divided into 1 ml aliquots in Eppendorf tubes. One sample served as a control, the tested compounds (peptides, ODDC) were added in selected concentrations to the rest of samples. Cells were incubated with drugs with occasional gentle stirring for 15 minutes, then 10 μl of cells were diluted 100-fold in distilled water and 15 μl aliquots were spread on 2% YPD agar (Formedium) plates (diameter of Petri plate 9 cm). The samples were always plated in triplicates. The number of colonies was determined after 24-h incubation of the plates at 30° C. […]

Bacillus subtilis = details: Bacillus subtilis; 37° C., 20 h
Procedure, shortened: (§5)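 Exponential-phase cultures were diluted and added at ca 10^5 CFU per well to twofold serial dilutions of peptide (final 0.1–100 μmol.l^−1) in LB medium.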

Candida albicans Olomouc = details: Candida albicans Olomouc; YPD medium; 37° C., 20 h (Example 2)
[4] = tested on: Enterococcus faecalis Motol; details: BHI medium, 37° C., 20 h
Escherichia coli = details: 37° C., 20 h
Procedure, shortened: as §5

[5] = tested on: Methicillin resistant Staphylococcus aureus (MRSA) 6271; details: 37° C., 20 h
Procedure, shortened: as §5

[6] = tested on: Pseudomonas aeruginosa 5482; details: 37° C., 20 h
Procedure, shortened: as §5

[7] = tested on: Pseudomonas aeruginosa Liberec; details: Pseudomonas aeruginosa Liberec; 37° C., 20 h
Procedure, shortened: as §5

[8] = tested on: Staphylococcus aureus Liberec; details: Staphylococcus aureus Liberec clinical isolate; 37° C., 20 h
Procedure, shortened: as §5

[9] = tested on: Staphylococcus aureus Motol; details: Staphylococcus aureus Motol clinical isolate; 37° C., 20 h
Procedure, shortened: as §5

[10] = tested on: Staphylococcus epidermidis Motol; details: 37° C., 20 h
Procedure, shortened: as §5

human red blood cells = test: in vitro; details: read-out: Hemolytic activity LC50; lysis of 50% of human erythrocytes; 1 h at 37° C.
Procedure, shortened: as §1

[11] = peptide concentration 8 μmol · l^−1
[12] = peptide concentration 16 μmol · l^−1
[13] = peptide concentration 32 μmol · l^−1
[14] = peptide concentration 64 μmol · l^−1
[15] = peptide concentration 128 μmol · l^−1

CC[C@@H](C)[C@@H](NC(=O)CN)C(=O)N[C@H](CCSC)C(=O)N[C@H](CO)C(=O)N[C@H](CO)C(=O)N[C@H](CC(C)C)C(=O)N[C@H](CCSC)C(=O)N[C@H](CCCCN)C(=O)N[C@H](CCCCN)C(=O)N[C@H](CC(C)C)C(=O)N[C@H](CCCCN)C(=O)N[C@H](CCCCN)C(=O)N[C@@H](C(=O)N[C@@H](C(=O)N[C@H](C)C(=O)N[C@H](CCCCN)C(N)=O)[C@H](C)CC)[C@H](C)CC [II] (HELM PEPTIDE1{G.[dI].[dM].[dS].[dS].[dL].[dM].[dK].[dK].[dL].[dK].[dK].[dI].[dI].[dA].[dK].[am]}$$$$V2.0)
CC50 at 1 h (in vitro): > 400 µM
Metabolic activity (%) S. aureus (Liberec) [1, 11]: 143.1%
Metabolic activity (%) S. aureus (Liberec) [1, 12]: 138.8%
Metabolic activity (%) S. aureus (Liberec) [1, 13]: 107.5%
Metabolic activity (%) S. aureus (Liberec) [1, 14]: 29.9%
Metabolic activity (%) S. aureus (Liberec) [1, 15]: 7.7%
Metabolic activity (%) P. aeruginosa (Liberec) [2, 11]: 94.2%
Metabolic activity (%) P. aeruginosa (Liberec) [2, 12]: 100.5%
Metabolic activity (%) P. aeruginosa (Liberec) [2, 13]: 79.1%
Metabolic activity (%) P. aeruginosa (Liberec) [2, 14]: 33.0%
Metabolic activity (%) P. aeruginosa (Liberec) [2, 15]: 26.7%
Metabolic activity of C. albicans (%) ([3]; peptide concentration 6.25 μmol · l^−1, 20 hours): 105.3%
Metabolic activity of C. albicans (%) ([3]; peptide concentration 12.5 μmol · l^−1, 20 hours): 114.2%
Metabolic activity of C. albicans (%) ([3]; peptide concentration 25 μmol · l^−1, 20 hours): 35.2%
Metabolic activity of C. albicans (%) ([3]; peptide concentration 50 μmol · l^−1, 20 hours): 1.0%
Metabolic activity of C. albicans (%) ([3]; peptide concentration 100 μmol · l^−1, 20 hours): 0.0%
Metabolic activity of C. albicans (%) ([3]; peptide concentration 200 μmol · l^−1, 20 hours): 0.0%
antifungal (lethal) effect in plating test (C. glabrata ATCC 2001): high antifungal effect

H-Gly-Ile-Leu-Ser-Ser-Leu-Trp-Lys-Lys-Leu-Lys-Lys-Ile-Ile-Ala-Lys-NH2 (H-GILSSLWKKLKKIIAK-NH2; also: D-amino acids (positions not given here)) [XIX]
Antimicrobial activity MIC B. s. (Bacillus subtilis): 2.0 µM
Antimicrobial activity MIC C. a. Olomouc (Candida albicans Olomouc): 26.0 µM
Antimicrobial activity MIC E. f. Motol [4]: 6.5 µM
Antimicrobial activity MIC E. c. (Escherichia coli): 13.0 µM
Antimicrobial activity MIC S. a. 6271 [5]: 6.3 µM
Antimicrobial activity MIC P. a. 5482 [6]: 6.3 µM
Antimicrobial activity MIC P. a. Liberec [7]: 8.5 µM
Antimicrobial activity MIC S. a. Liberec [8]: 3.2 µM
Antimicrobial activity MIC S. a. Motol [9]: 3.2 µM
Antimicrobial activity MIC S. e. Motol [10]: 1.6 µM
CC50 (human red blood cells): > 200 µM
Metabolic activity (%) S. aureus (Liberec) [1, 11]: 72.8%
Metabolic activity (%) S. aureus (Liberec) [1, 12]: 2.8%
Metabolic activity (%) S. aureus (Liberec) [1, 13]: 2.3%
Metabolic activity (%) S. aureus (Liberec) [1, 14]: 2.3%
Metabolic activity (%) S. aureus (Liberec) [1, 15]: 1.7%
